The subject of experiment [1] is Cercospora beticola (strain E897). The experiment is described as follows: Anti-fungal activity against foliar disease: in vivo test on sugarbeet plants. Particulars: foliar spray one day prior to inoculation.
For experiment [2], the system named is Venturia inaegualis MUCL 15927. In kind it is cell-based.
Experiment [3] deals with Fusarium oxysporum f.sp. pisi IMI 236441. In kind it is cell-based.
The subject of experiment [4] is Fusarium culmorum IMI 180420. The experiment is classed as cell-based.
Experiment [5] relates to Bacillus megaterium ATCC 13632. In kind it is cell-based.
The subject of experiment [6] is Sclerotinia sclerotianum MUCL 30163. The experiment is classed as cell-based.
Another experiment has as its system F culmorum and T hamatum. In kind it is cell-based, Fusarium culmorum, Trichoderma hamatum. As to the method: Antifungal activity was measured by microspectrophotometry as previously described (Broekaert, 1990, FEMS Microbiol Lett, 69:55-60). Routinely, tests were performed with 20 μl of a (filter-sterilized) test solution and 80 μl of a suspension of fungal spores (2×10^4 spores/ml) in half strength potato dextrose broth (1/2 PDB). Some tests were performed using a suspension of mycelium fragments in a synthetic growth medium. […] Control microcultures contained 20 μl of sterile distilled water and 80 μl of the fungal suspension.
Unless otherwise stated the test organism was Fusarium culmorum (strain IMI 180420) and incubation was done at 25° C. for 48 hours. Percent growth inhibition is defined as 100 times the ratio of the corrected absorbance of the control microculture minus the corrected absorbance of the test microculture over the corrected absorbance at 595 nm of the control microculture. The corrected absorbance values equal the absorbance at 595 nm of the culture measured after 48 hours minus the absorbance at 595 nm measured after 30 min.
The effect of ions on the antifungal activity of the Rs-AFPs and Rs-nsLTP was examined in more detail. […] The reference medium was the synthetic growth medium described in Example 1 which contains a total of 2.5 mM monovalent cations and 0.1 mM divalent cations. […]

The subject of the next experiment is plant pathogenic fungi. In kind it is cell-based.
The subject of experiment [7] is Septoria nodorum MUCL 30111. The experiment is classed as cell-based.
Experiment [8] deals with Trichoderma hamatum MUCL 29736. In kind it is cell-based.
The test system of experiment [9] is Rhizoctonia solani CBS 207-84. The experiment is classed as cell-based.
In experiment [10] the test system is Cercospora beticola strain K897. The experiment is classed as cell-based.
Experiment [11] has as its system Agrobacterium tumefaciens C58, Alcaligenes eutrophus, Azospirillum brasilense Sp7, Bacillus megaterium ATCC 13632, Erwinia carotovora strain 3912, Escherichia …. In kind it is cell-based.

Several values for one entry are separate records, joined by “and”; a condition that tells them apart may be missing. Identical values can stand only once.

Consider `CCCCC(O)(Cn1cncn1)c1ccc(Cl)cc1Cl` (stereo not shown) [hexaconazole, reference compound], for which the “concentration giving 50% control of the disease” value in experiment [1] was “approximately 7 μM”.
“Rs-AFP2: antifungal protein from Raphanus sativus (radish) seeds, oligomeric, identical 5 kDa subunits, highly basic (QKLCQRPSGTWSGVCGNNNACKNQCIRLEKARHGSCNYVFPAHKCICYFPC; UniProt P30230 30-80, looked up)”: the IC50 in experiment [2] is 25 μg/m1 and >50 μg/m1; in experiment [3], 2 μg/m1; in experiment [4] it was 2 µg/mL and 5 µg/mL; in experiment [6], more than 100 μg/m1; in experiment [7], 15 μg/m1 and 20 μg/m1; in experiment [8], 2 µg/mL. Besides, the IC50 in [9] was more than 100 μg/m1; in experiment [10], 2 μg/m1 and 3 μg/m1. Moreover, the “antifungal activity of the reversed-phase HPLC peak in medium A and medium B” value in experiment [4] was “active in both medium A and medium B”. For the same compound, in experiment [5], the “concentration causing 50% inhibition of growth” value came to 200 µg/mL. Moreover, the “effect of Ca2+ on antifungal activity” value in the experiment on F culmorum and T hamatum (CaCl2 at 5 mM) is listed as “varied from a slight increase in IC50 for F culmorum to complete inactivation for T hamatum”. In addition, the “effect of K+ on antifungal activity” value with F culmorum and T hamatum (KCl at up to 50 mM) is recorded as “did not affect the antifungal activity”. Also, the “fungi inhibited by more than 50% at concentrations below 100 μg/ml” value with plant pathogenic fungi is listed as 11 out of 18. Moreover, the “concentration giving 50% control of the disease” value in experiment [1] was “approximately 15 μM”. In experiment [11], the “effect on the other bacteria” value is on record as “no effect”.
